# Literature values as cited in US5047532A, “Isolation and elucidation of Cephalostatins 5 and 6” (Arizona Board of Regents, acting on behalf of Arizona State …, priority 1989, dated 1991).
# Tested on: murine P388 lymphocytic leukemia (PS cell line)
# Details: Pettit et al, J. Chem. Soc. Chem. Commun. 85 (1988)
structure (smiles),measurement,value
C[C@@H]1[C@]2(O[C@H]3C=C4[C@@H]5CC[C@H]6Cc7nc8c(nc7C[C@]6(C)[C@H]5C[C@@H](O)[C@]4(C)[C@]31O)C[C@@H]1CC[C@H]3C4=CC[C@@H]5[C@H](C)[C@@]6(OC[C@]45C(=O)C[C@@H]3[C@@]1(C)C8)OC(C)(C)C[C@H]6O)O[C@](C)(CO)C[C@H]2O [Cephalostatin 1],murine P388 lymphocytic leukemia (PS system) cell growth inhibition,cell growth inhibitor
